From US20230146455A1, “TREATMENT OF INFLAMMATORY DISEASES WITH PEPTIDES AND PHARMACEUTICAL COMPOSITIONS” (Yuyu Pharma, Inc., priority 2020, published 2023)

Key:
[1] = tested on: primary corneal epithelial cells; test: Cell proliferation of primary corneal epithelial cells (CellTiter-Glo, Example 3); format: cell-based, human
Method: • Test System: HCE cells from ATCC. • Assay Format: 96-well plate format • Method of Detection: CellTiter-Glo Luminescent Cell Viability Assay (Pro mega, Cat #G7573) • Assay Controls: Reference compound (hEGF) and untreated cells • Test Samples: 57 • Media: Corneal Epithelial Cell Basal Medium+Cell growth kit components EXPERIMENTAL DESIGN
Specifically, 5000 primary corneal epithelial cells/well were seeded in a white opaque 96-well plate and incubated for 24 hrs in a 37° C. incubator supplemented with 5% CO2. After 24 hours, test compounds were treated at 8 different concentrations. Cells treated with compounds were incubated for 48 & 72 hrs at 37° C. in a 5% CO2 incubator. Post appropriate incubation time points, CellTiter-Glo luminescent reagent (Promega, Cat #G7573) was added to the plates and incubated at room temperature for 30 min. Luminescence signal was captured using EnVision^2104® Multilabel reader. Assay controls were reference compound (hEGF) and untreated cells.

[2] = tested on: IL-1beta, IL-6, IL-8, MIP-1alpha, MIP-1beta, RANTES, and TNF-alpha release in poly I:C stimulated primary human corneal epithelial cells; test: Panel of soluble proteins release in poly I:C stimulated primary human corneal epithelial cells by Multiplex (Example 4); format: cell-based; settings: for IL-6, MFI Mean±SD: Stimulated 14801±407, p<0.05
Text: (§1) To determine the effect of compound by assessing the panel of soluble proteins release in poly I:C stimulated primary human corneal epithelial cells by Multiplex. • Test System: Primary Human Corneal Epithelial cells • Assay Format: 96-well plate format • Method of Detection: Enzyme-linked immunosorbent assay • Assay Controls: Hinokitiol Assay protocol as described below was used to determine the significant effect of test compounds. The data was statistically analyzed by one-way ANOVA with a Bonferroni post test comparing all the columns. The significance was represented by the p value.

NF-kB (p65) = NF-kB (p65) transcription activity in poly I:C stimulated primary human corneal epithelial cells (Example 5); format: cell-based
Text: as §1, with “YDE053 on NF-kB (p65) transcription activity” for “compound by assessing the panel of soluble proteins release”, “cells. Study Plan” for “cells by Multiplex.”, “shown” for “described”

[3] = tested on: IL-6 cytokine release in poly I:C stimulated primary human corneal epithelial cells; test: Soluble IL-6 cytokine release in poly I:C stimulated primary human corneal epithelial cells by ELISA (Example 2); format: cell-based; settings: 30, 10, 1, 0.1, 0.01, 0.001 μM, 25 μg/mL poly I:C, 24 hours
Method: Assay protocol as shown below was used to determine the significant effect of test compounds. The data was statistically analyzed by one-way ANOVA with a Bonferroni post test comparing all the columns. The significance was represented by the p value.
Selected YDE peptides (YDE-093, -096, -100, -101, -102, -103, -104, -105, -106 and -107) were evaluated by assessing the soluble IL-6 cytokine release in poly I:C stimulated primary human corneal epithelial cells by ELISA (Biolegend, 430504).
Specifically, primary corneal epithelial cells (ATCC, ATCC PCS-700-010) were seeded on a 6-well culture plate containing the Corneal Epithelial Cell Basal Medium (ATCC, ATCC PCS-700-030) in the Corneal Epithelial Cell Growth Kit (ATCC, ATCC PCS-700-040) in an amount of 1.2×10^5 cells per well, which was then cultured for 24 hours under the conditions of 37° C. and 5% CO2. Then, cells were washed with 1×PBS and replaced with serum free medium which was then cultured for 2 hours under the conditions of 37° C. and 5% CO2.
After 2 hours, cells were treated with compounds at 6 differential concentrations (Hinokitiol/YDE peptides at 30, 10, 1, 0.1, 0.01, and 0.001 μM) with the DMSO final 0.5% and then cultured for 1 hour under the conditions of 37° C. and 5% CO2.
After 1 hour, cells were further treated with 25 μg/mL of poly I:C and cultured for 24 hours under the conditions of 37° C. and 5% CO2.
Following incubation, the supernatant was collected for IL-6 levels was assessed by Sandwich ELISA (Enzyme-linked immunosorbent assay) following manufacturer's instructions. The data was statistically analyzed by one-way ANOVA with a Bonferroni post-test comparing all the columns. The significance was represented by the p value.

[4] = tested on: IL-6 cytokine release in poly I:C stimulated primary human corneal epithelial cells; test: Soluble IL-6 cytokine release in poly I:C stimulated primary human corneal epithelial cells by ELISA (Example 6); format: cell-based
Text: as §1, with “the” for “the panel of”, “IL-6 cytokine” for “proteins”, “ELISA.” for “Multiplex.”, “shown” for “described”

[5] = tested on: CIA-induced Rheumatoid Arthritis; test: Mouse CIA-induced Rheumatoid Arthritis Model: body weight, hind paw thickness, clinical score (Example 13); format: in vivo; settings: CII-injected mice
Text: Clinical score: 0—no change; 1—swelling and erythema of the digit; 2—mild swelling and erythema of the limb; 3—gross swelling and erythema of the digit; 4—gross deformity and inability to use the limb.

Molecule: Human epidermal growth factor (NSDSECPLSHDGYCLHDGVCMYIEALDKYACNCVVGYIGERCQYRDLKWWELR; UniProt P01133 971-1023, looked up) [hEGF]
- cell proliferation (in words) ([1]; 48 hrs or 72 hrs, 30 to 0.01 μM): Concentration dependent proliferation of primary corneal epithelial cells
- maximum proliferation ([1]; highest tested concentration of 30 μM, 48 hrs): ~40%

Molecule: CC(C)c1cccc(=O)c(O)c1 [Hinokitiol]
- Poly I:C stimulated cytokines release (IL-1beta, IL-6, IL-8, MIP-1alpha, MIP-1beta, RANTES, and TNF-alpha) (in words) ([2]; Multiplex): significantly attenuate the Poly I:C stimulated cytokines release
- IL-6, MFI Mean±SD ([2]; Stimulated + 1 μM): 7004±376
- IL-6, MFI Mean±SD ([2]; Stimulated + 10 μM): 7011±471
- IL-6, MFI Mean±SD ([2]; Stimulated + 30 μM): 6759±500
- phosphorylation of (p65) NF-kB in Poly I:C stimulated cells (in words) (NF-kB (p65)): significantly attenuate the phosphorylation of (p65) NF-kB in Poly I:C stimulated cells in a dose dependent manner
- Poly I:C induced IL-6 cytokine release (in words) [3]: significantly attenuate the Poly I:C stimulated IL-6 cytokine release in a dose dependent manner
- Poly I:C induced IL-6 cytokine release (in words) [4]: significantly attenuate the Poly I:C stimulated IL-6 cytokine release in a dose dependent manner

Molecule: C[C@@H]1C[C@H]2[C@@H]3CCC4=CC(=O)C=C[C@]4(C)[C@@]3(F)[C@@H](O)C[C@]2(C)[C@@]1(O)C(=O)CO [dexamethasone]
- body weight (in words) [5]: lead to a decease in body weight in mice
